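48-hour exposure; five concentrations; linearly interpolated endpoints. GI50 = concentration required for 50% inhibition of growth.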 Activity calls are given as the source filed them. No stated cut-off is given here; in the data, active = GI50 up to about 1.1 µM and inactive = higher.
What was measured:
Test in all cases: DTP human tumour cell line panel, 48 h
[1] = system: MOLT-4
[2] = system: SK-MEL-28
[3] = system: COLO 205
[4] = system: NCI-H226
[5] = system: LXFL 529
[6] = system: SF-295
[7] = system: SW-620
[8] = system: DU-145
[9] = system: NCI-H522
[10] = system: RXF 631
[11] = system: NCI-H460
[12] = system: U-251
[13] = system: HL-60
[14] = system: NCI-H23
[15] = system: IGROV-1
[16] = system: UO-31
[17] = system: K562
[18] = system: RPMI-8226
[19] = system: A498
[20] = system: SK-MEL-2
[21] = system: UACC-62
[22] = system: Malme-3M
[23] = system: SF-268
[24] = system: LOX IMVI
[25] = system: TK-10
[26] = system: HCT-15
[27] = system: SNB-19
[28] = system: OVCAR-4
[29] = system: BT-549
[30] = system: SK-OV-3
[31] = system: HOP-92
[32] = system: OVCAR-8
[33] = system: MDA-MB-231
[34] = system: KM-20L2
[35] = system: MCF7
[36] = system: SNB-78
[37] = system: EKVX
[38] = system: UACC-257
[39] = system: DLD-1
[40] = system: RXF 393
[41] = system: CCRF-CEM
[42] = system: HOP-62
[43] = system: SR
[44] = system: SN12C
[45] = system: OVCAR-3
[46] = system: HT-29
[47] = system: ACHN
[48] = system: M14
[49] = system: SK-MEL-5
[50] = system: NCI/ADR-RES
[51] = system: SF-539
[52] = system: MDA-MB-435
[53] = system: 786-0
[54] = system: KM12
[55] = system: HCT-116
[56] = system: A549
[57] = system: CAKI-1
[58] = system: OVCAR-5
[59] = system: DMS-273
[60] = system: SNB-75
[61] = system: PC-3
[62] = system: HCC 2998
[63] = system: XF498
[64] = system: DMS-114
[65] = system: M19-MEL

COc1ccc2nc3ccccc3c(NCCCCN(C)CCCl)c2c1
GI50 [1]: < 10 nM (active)
GI50 [2]: 367 nM (active)
GI50 [3]: < 10 nM (active)
GI50 [4]: 69.2 nM (active)
GI50 [5]: < 13 nM (active)
GI50 [6]: 65.2 nM (active)
GI50 [7]: 15.1 nM (active)
GI50 [8]: 53.7 nM (active)
GI50 [9]: < 14.3 nM (active)
GI50 [10]: < 18.5 nM (active)
GI50 [11]: 14 nM (active)
GI50 [12]: 34.4 nM (active)
GI50 [13]: 18.8 nM (active)
GI50 [14]: 51.3 nM (active)
GI50 [15]: 40.8 nM (active)
GI50 [16]: 107 nM (active)
GI50 [17]: 23.1 nM (active)
GI50 [18]: < 10 nM (active)
GI50 [19]: 43.5 nM (active)
GI50 [20]: 146 nM (active)
GI50 [21]: 37.3 nM (active)
GI50 [22]: 330 nM (active)
GI50 [23]: 18.6 nM (active)
GI50 [24]: 33.5 nM (active)
GI50 [25]: 638 nM (active)
GI50 [26]: 18.5 nM
GI50 [27]: 191 nM (active)
GI50 [28]: 88.9 nM (active)
GI50 [29]: < 10 nM (active)
GI50 [30]: 77.5 nM (active)
GI50 [31]: 60.4 nM (active)
GI50 [32]: 25.4 nM (active)
GI50 [33]: 144 nM (active)
GI50 [34]: 27.7 nM (active)
GI50 [35]: < 10 nM (active)
GI50 [36]: 59.6 nM (active)
GI50 [37]: 393 nM (active)
GI50 [38]: 581 nM (active)
GI50 [39]: 47.1 nM (active)
GI50 [40]: 91.4 nM (active)
GI50 [41]: 13 nM (active)
GI50 [42]: 82 nM (active)
GI50 [43]: < 10 nM (active)
GI50 [44]: 18.4 nM (active)
GI50 [45]: 39.2 nM (active)
GI50 [46]: 17.8 nM (active)
GI50 [47]: < 17.4 nM (active)
GI50 [48]: 71.1 nM (active)
GI50 [49]: 77.3 nM (active)
GI50 [50]: 61.1 nM (active)
GI50 [51]: 68.9 nM (active)
GI50 [52]: 78.3 nM (active)
GI50 [53]: 17.7 nM (active)
GI50 [54]: 40.7 nM (active)
GI50 [55]: 19.9 nM (active)
GI50 [56]: 28.6 nM (active)
GI50 [57]: 28.4 nM (active)
GI50 [58]: 186 nM (active)
GI50 [59]: 21.8 nM (active)
GI50 [60]: 122 nM (active)
GI50 [61]: 56.9 nM (active)
GI50 [62]: 89.3 nM (active)
GI50 [63]: 36.9 nM (active)

COC(=O)C(CC(=O)Nc1ccc(C)cc1)C(=O)C(=O)Nc1c(C(C)C)cccc1C(C)C (stereo not drawn)
GI50 [64]: > 100000 nM (inactive)
GI50 [1]: > 100000 nM (inactive)
GI50 [2]: > 100000 nM (inactive)
GI50 [3]: > 100000 nM (inactive)
GI50 [4]: > 100000 nM (inactive)
GI50 [5]: 99100 nM (inactive)
GI50 [7]: > 100000 nM (inactive)
GI50 [9]: > 100000 nM (inactive)
GI50 [10]: > 100000 nM (inactive)
GI50 [11]: > 100000 nM (inactive)
GI50 [12]: > 100000 nM (inactive)
GI50 [13]: > 100000 nM (inactive)
GI50 [14]: > 100000 nM (inactive)
GI50 [15]: > 100000 nM (inactive)
GI50 [16]: > 100000 nM (inactive)
GI50 [17]: > 100000 nM (inactive)
GI50 [18]: > 100000 nM (inactive)
GI50 [19]: > 100000 nM (inactive)
GI50 [65]: > 100000 nM (inactive)
GI50 [20]: > 100000 nM (inactive)
GI50 [21]: 55200 nM (inactive)
GI50 [22]: > 100000 nM (inactive)
GI50 [23]: > 100000 nM (inactive)
GI50 [24]: > 100000 nM (inactive)
GI50 [25]: > 100000 nM (inactive)
GI50 [26]: 48600 nM
GI50 [27]: > 100000 nM (inactive)
GI50 [28]: > 100000 nM (inactive)
GI50 [30]: > 100000 nM (inactive)
GI50 [31]: > 100000 nM (inactive)
GI50 [32]: > 100000 nM (inactive)
GI50 [34]: > 100000 nM (inactive)
GI50 [36]: > 100000 nM (inactive)
GI50 [37]: > 100000 nM (inactive)
GI50 [39]: > 100000 nM (inactive)
GI50 [40]: > 100000 nM (inactive)
GI50 [41]: > 100000 nM (inactive)
GI50 [42]: > 100000 nM (inactive)
GI50 [44]: > 100000 nM (inactive)
GI50 [47]: > 100000 nM (inactive)
GI50 [48]: > 100000 nM (inactive)
GI50 [51]: > 100000 nM (inactive)
GI50 [53]: > 100000 nM (inactive)
GI50 [55]: > 100000 nM (inactive)
GI50 [56]: > 100000 nM (inactive)
GI50 [57]: > 100000 nM (inactive)
GI50 [58]: > 100000 nM (inactive)
GI50 [60]: 97700 nM (inactive)
GI50 [62]: > 100000 nM (inactive)
GI50 [63]: > 100000 nM (inactive)
